Source: ChEMBL document CHEMBL4196010, “New hydrazides derivatives of isoniazid against Mycobacterium tuberculosis: Higher potency and lower hepatocytotoxicity” (Eur J Med Chem, 2018)
Converted amounts (≈) assume the structure as drawn.

How the values were obtained:
[1] = system: Mycobacterium tuberculosis; experiment: Antitubercular activity against Mycobacterium tuberculosis; assay type: functional
[2] = system: Mycobacterium tuberculosis; experiment: Antitubercular activity against Mycobacterium tuberculosis H37Rv ATCC 27294 after 5 days by microplate alamar blue assay; assay type: functional; details: H37Rv ATCC 27294, 120 h
[3] = system: J774.A1; experiment: Cytotoxicity against mouse J774A.1 cells assessed as decrease in cell viability at 1 nM after 20 hrs by resazurin dye-based fluorimetric method; details: j774.a1, 20 h, 0.001 µM
[4] = system: J774.A1; experiment: Cytotoxicity against mouse J774A.1 cells assessed as decrease in cell viability at 1 uM after 20 hrs by resazurin dye-based fluorimetric method; details: j774.a1, 20 h
[5] = Cytotoxicity against human HepG2 cells after 24 hrs by WST-1 assay; assay type: cell-based; details: read-out: LC50
[6] = Selectivity index, ratio of LC50 for human HepG2 cells to MIC for Mycobacterium tuberculosis H37Rv ATCC 27294; assay type: toxicity; details: read-out: Selectivity Index
[7] = system: J774.A1; experiment: Cytotoxicity against mouse J774A.1 cells assessed as decrease in cell viability at 100 nM after 20 hrs by resazurin dye-based fluorimetric method; details: j774.a1, 20 h, 0.1 µM
[8] = system: J774.A1; experiment: Cytotoxicity against mouse J774A.1 cells assessed as decrease in cell viability at 100 uM after 20 hrs by resazurin dye-based fluorimetric method; details: j774.a1, 20 h
[9] = Cytotoxicity against human HepG2 cells after 3 hrs by WST-1 assay; assay type: cell-based; details: read-out: LC50
[10] = system: J774.A1; experiment: Cytotoxicity against mouse J774A.1 cells assessed as decrease in cell viability at 10 uM after 20 hrs by resazurin dye-based fluorimetric method; details: j774.a1, 20 h
[11] = system: J774.A1; experiment: Cytotoxicity against mouse J774A.1 cells assessed as decrease in cell viability at 10 nM after 20 hrs by resazurin dye-based fluorimetric method; details: j774.a1, 20 h, 0.01 µM
[12] = system: Mycobacterium tuberculosis; experiment: Potency index, ratio of ethambutol MIC to compound MIC for antitubercular activity against Mycobacterium tuberculosis H37Rv ATCC 27294; assay type: functional
[13] = system: Mycobacterium tuberculosis; experiment: Potency index, ratio of pyrazinamide MIC to compound MIC for antitubercular activity against Mycobacterium tuberculosis H37Rv ATCC 27294; assay type: functional

`CC(=O)Nc1ccc(Cl)cc1C(F)(F)C(=O)NNC(N)=S` showed an MIC [1] of 297 µM (≈ 100 µg/mL).
Molecule `CC(=O)Nc1ccccc1C(F)(F)C(=O)NN=C1CCCCC1` has an MIC [2] of over 310 µM.
`CC(=O)Nc1ccccc1C(F)(F)C(=O)NNC(=N)N` gave an MIC [2] of over 351 µM.
For `NC(=O)c1cnccn1` [PYRAZINAMIDE], the MIC [2] was 813 µM (≈ 100 µg/mL).
With `CC(=O)Nc1ccc(Cl)cc1C(F)(F)C(=O)NNC(=O)c1ccncc1` the MIC [2] was 16.4 µM (≈ 6.27 µg/mL).
`CC[C@@H](CO)NCCN[C@@H](CC)CO` [ETHAMBUTOL] gave an MIC [2] of 15.9 µM (≈ 3.25 µg/mL).
Molecule `O=C(NNC(=O)c1ccncc1)C(=O)c1ccccc1NC(=O)c1ccccc1` has an Activity [3] of 100%, an Activity [4] of 98.2% and a CC50 at 24 h [5] of over 200 µM. The MIC [2] was 8.04 µM (≈ 3.12 µg/mL), the selectivity ratio [6] was over 25 and the Activity [7] was 99.8%. For the same molecule, the Activity [8] was 86.5%, the CC50 at 3 h [9] was over 200 µM and the Activity [10] was 98%. It also gave an Activity [11] of 99.4%.
`COc1ccc(NC(C)=O)c(C(F)(F)C(=O)NNC(=O)c2ccncc2)c1` showed an MIC [2] of 33.1 µM (≈ 12.5 µg/mL).
`CC(=O)Nc1ccc(C)cc1C(F)(F)C(=O)NNc1ccccc1` gave an MIC [2] of over 300 µM.
For `CC(=O)Nc1ccccc1C(F)(F)C(=O)NNc1ccccc1`, the MIC [2] was over 313 µM.
For `O=C(CCl)Nc1ccccc1C(=O)C(=O)NNC(=O)c1ccncc1`, the Activity [3] was 99%, the Activity [4] was 96.5% and the Ratio [12] was 30. For the same molecule, the Ratio [13] was 1800, the CC50 at 24 h [5] was 110 µM and the MIC [2] was 0.43 µM (≈ 0.155 µg/mL). For the same molecule, the selectivity ratio [6] was 256, the Activity [7] was 97.9% and the Activity [8] was 63.3%. The CC50 at 3 h [9] was over 200 µM, the Activity [10] was 98.8% and the Activity [11] was 98.5%.
